Reference: ChEMBL document CHEMBL3217463, “Design, synthesis and biological evaluation of -lactam hydroxamate based TACE inhibitors” (Medchemcomm, 2011)

What was measured:
[1] = tested on: Blood; assay: Antiinflammatory activity in human whole blood assessed as inhibition of LPS-induced TNFalpha secretion by ELISA; assay type: functional, tissue-based
[2] = Tmax in Wistar rat at 5 mg/kg, po; assay type: ADME, organism-based; design: dose 5 mg/kg, route oral; details: in vivo
[3] = molecular target: T1, Disintegrin and metalloproteinase domain-containing protein 17 (Homo sapiens, UniProt P78536); assay: Inhibition of human catalytic domain of TACE assessed as inhibit the cleavage of the substrate by fluorescence-based FRET assay
[4] = tested on: Rattus norvegicus; assay: Toxicity in Wistar rat assessed as relative heart weight at 100 mg/kg, po bid for 28 days (reference value: 0.345 +/- 0.007 %); assay type: organism-based; design: dose 100 mg/kg, route oral; details: in vivo, 672 h
[5] = Oral bioavailability in Wistar rat at 5 mg/kg; assay type: ADME, organism-based; details: in vivo
[6] = molecular target: T2, Interstitial collagenase (Homo sapiens, UniProt P03956); assay: Inhibition of MMP1 (unknown origin) by fluorescence-based FRET assay
T2 sequence (P03956 whole entry): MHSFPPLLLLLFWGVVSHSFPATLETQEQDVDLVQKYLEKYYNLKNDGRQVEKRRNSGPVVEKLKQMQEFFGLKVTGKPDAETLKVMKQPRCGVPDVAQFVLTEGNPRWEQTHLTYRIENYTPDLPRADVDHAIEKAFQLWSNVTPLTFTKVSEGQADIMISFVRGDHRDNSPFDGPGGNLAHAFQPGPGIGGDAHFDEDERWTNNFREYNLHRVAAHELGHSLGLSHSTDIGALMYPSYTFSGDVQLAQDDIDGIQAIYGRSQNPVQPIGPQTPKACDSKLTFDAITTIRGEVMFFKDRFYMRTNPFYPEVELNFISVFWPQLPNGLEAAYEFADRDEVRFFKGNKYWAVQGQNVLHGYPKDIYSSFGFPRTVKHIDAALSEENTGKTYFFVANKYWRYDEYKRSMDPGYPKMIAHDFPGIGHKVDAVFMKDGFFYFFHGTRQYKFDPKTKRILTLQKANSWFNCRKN

[7] = AUC in Wistar rat at 5 mg/kg, iv; assay type: ADME, organism-based; design: dose 5 mg/kg, route intravenous; details: plasma
[8] = molecular target: Matrix metalloproteinase-9 (Homo sapiens, UniProt P14780); assay: Inhibition of MMP9 (unknown origin) by fluorescence-based FRET assay
[9] = tested on: Rattus norvegicus; assay: Toxicity in Wistar rat assessed as RBC count at 100 mg/kg, po bid for 28 days (reference value: 7.38 +/- 0.11 10^6/ul); assay type: organism-based; design: dose 100 mg/kg, route oral; details: in vivo, 672 h
[10] = tested on: Rattus norvegicus; assay: Toxicity in Wistar rat assessed as relative kidney weight at 100 mg/kg, po bid for 28 days (reference value: 0.821 +/- 0.03 %); assay type: organism-based; design: dose 100 mg/kg, route oral; details: in vivo, 672 h
[11] = tested on: Rattus norvegicus; assay: Toxicity in Wistar rat assessed as alanine aminotransferase at 100 mg/kg, po bid for 28 days (reference value: 20.78 +/- 1.31 U/L); assay type: organism-based; design: dose 100 mg/kg, route oral; details: in vivo, 672 h
[12] = Half life in Wistar rat at 5 mg/kg, po; assay type: ADME, organism-based; design: dose 5 mg/kg, route oral; details: Wistar, in vivo
[13] = Elimination rate constant in Wistar rat at 5 mg/kg, iv; assay type: ADME, organism-based; design: dose 5 mg/kg, route intravenous; details: in vivo
[14] = tested on: Rattus norvegicus; assay: Toxicity in Wistar rat assessed as total bilirubin at 100 mg/kg, po bid for 28 days (reference value: 0.14 +/- 0.01 mg/dL); assay type: organism-based; design: dose 100 mg/kg, route oral; details: in vivo, 672 h
[15] = tested on: Rattus norvegicus; assay: Toxicity in Wistar rat assessed as food consumption at 100 mg/kg, po bid for 28 days; assay type: organism-based; design: dose 100 mg/kg, route oral; details: in vivo, 672 h
[16] = Elimination rate constant in Wistar rat at 5 mg/kg, po; assay type: ADME, organism-based; design: dose 5 mg/kg, route oral; details: Wistar, in vivo
[17] = tested on: Rattus norvegicus; assay: Toxicity in Wistar rat assessed as alkaline phosphatase at 100 mg/kg, po bid for 28 days (reference value: 134.66 +/- 5.3 U/L); assay type: organism-based; design: dose 100 mg/kg, route oral; details: in vivo, 672 h
[18] = tested on: Rattus norvegicus; assay: Toxicity in Wistar rat assessed as survival at 100 mg/kg, po bid for 28 days; assay type: organism-based; design: dose 100 mg/kg, route oral; details: in vivo, 672 h
[19] = tested on: Rattus norvegicus; assay: Toxicity in Wistar rat assessed as adverse changes at 100 mg/kg, po bid for 28 days; assay type: organism-based; design: dose 100 mg/kg, route oral; details: in vivo, 672 h
[20] = tested on: Mus musculus; assay: Antiinflammatory activity in po dosed Swiss Albino mouse assessed as inhibition of LPS-induced TNFalpha secretion in blood treated 0.5 hrs before LPS and measured after 1 hr of LPS stimulus by ELISA; assay type: functional
[21] = molecular target: T1, Disintegrin and metalloproteinase domain-containing protein 17; assay: Ratio of IC50 for human catalytic domain of TACE to IC50 for ADAM10 (unknown origin)
[22] = molecular target: Neutrophil collagenase (Homo sapiens, UniProt P22894); assay: Inhibition of MMP8 (unknown origin) by fluorescence-based FRET assay
[23] = molecular target: 72 kDa type IV collagenase (Homo sapiens, UniProt P08253); assay: Inhibition of MMP2 (unknown origin) by fluorescence-based FRET assay
[24] = AUC in Wistar rat at 5 mg/kg, po; assay type: ADME, organism-based; design: dose 5 mg/kg, route oral; details: plasma
[25] = tested on: Rattus norvegicus; assay: Toxicity in Wistar rat assessed as body weight at 100 mg/kg, po bid for 28 days; assay type: organism-based; design: dose 100 mg/kg, route oral; details: in vivo, 672 h
[26] = tested on: Rattus norvegicus; assay: Toxicity in Wistar rat assessed as relative brain weight at 100 mg/kg, po bid for 28 days (reference value: 0.727+/- 0.024 %); assay type: organism-based; design: dose 100 mg/kg, route oral; details: in vivo, 672 h
[27] = tested on: Rattus norvegicus; assay: Toxicity in Wistar rat assessed as relative liver weight at 100 mg/kg, po bid for 28 days (reference value: 3.659 +/- 0.1 %); assay type: organism-based; design: dose 100 mg/kg, route oral; details: in vivo, 672 h
[28] = tested on: Rattus norvegicus; assay: Toxicity in Wistar rat assessed as WBC count at 100 mg/kg, po bid for 28 days (reference value: 8.20 +/- 0.33 10^3/ul); assay type: organism-based; design: dose 100 mg/kg, route oral; details: in vivo, 672 h
[29] = tested on: Rattus norvegicus; assay: Toxicity in Wistar rat assessed as aspartate aminotransferase at 100 mg/kg, po bid for 28 days (reference value: 147.16 +/- 11.75 U/L); assay type: organism-based; design: dose 100 mg/kg, route oral; details: in vivo, 672 h
[30] = Half life in Wistar rat at 5 mg/kg, iv; assay type: ADME, organism-based; design: dose 5 mg/kg, route intravenous; details: in vivo
[31] = molecular target: T3, Disintegrin and metalloproteinase domain-containing protein 10 (Homo sapiens, UniProt O14672); assay: Inhibition of ADAM10 (unknown origin) using fluorescent substrate by fluorescence-based FRET assay
T3 sequence (O14672 whole entry): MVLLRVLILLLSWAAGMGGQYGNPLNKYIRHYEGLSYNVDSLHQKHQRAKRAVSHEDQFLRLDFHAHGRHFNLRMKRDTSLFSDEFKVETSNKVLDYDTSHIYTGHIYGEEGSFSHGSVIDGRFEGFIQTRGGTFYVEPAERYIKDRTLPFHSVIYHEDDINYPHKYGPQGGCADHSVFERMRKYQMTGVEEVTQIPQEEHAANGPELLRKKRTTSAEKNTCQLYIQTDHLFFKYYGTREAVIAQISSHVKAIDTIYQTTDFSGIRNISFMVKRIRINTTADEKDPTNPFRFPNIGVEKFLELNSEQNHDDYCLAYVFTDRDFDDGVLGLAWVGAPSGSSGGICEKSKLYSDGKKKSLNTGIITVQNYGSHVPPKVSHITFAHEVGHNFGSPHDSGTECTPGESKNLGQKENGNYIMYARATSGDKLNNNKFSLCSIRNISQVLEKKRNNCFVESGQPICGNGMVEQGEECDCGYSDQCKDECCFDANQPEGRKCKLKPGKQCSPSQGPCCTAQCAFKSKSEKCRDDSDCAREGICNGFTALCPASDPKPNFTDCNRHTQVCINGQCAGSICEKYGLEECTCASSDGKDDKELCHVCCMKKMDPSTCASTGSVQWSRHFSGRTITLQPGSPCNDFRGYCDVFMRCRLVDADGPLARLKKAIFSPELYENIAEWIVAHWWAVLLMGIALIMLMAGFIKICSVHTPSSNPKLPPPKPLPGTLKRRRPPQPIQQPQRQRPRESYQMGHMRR

[32] = tested on: Rattus norvegicus; assay: Toxicity in Wistar rat assessed as relative spleen weight at 100 mg/kg, po bid for 28 days (reference value: 0.201+/- 0.007 %); assay type: organism-based; design: dose 100 mg/kg, route oral; details: in vivo, 672 h
[33] = molecular target: Matrix metalloproteinase-14 (Homo sapiens, UniProt P50281); assay: Inhibition of MMP14 (unknown origin) by fluorescence-based FRET assay
[34] = molecular target: Collagenase 3 (Homo sapiens, UniProt P45452); assay: Inhibition of MMP13 (unknown origin) by fluorescence-based FRET assay
[35] = molecular target: T4, Matrilysin (Homo sapiens, UniProt P09237); assay: Inhibition of MMP7 (unknown origin) by fluorescence-based FRET assay
T4 sequence (P09237 whole entry): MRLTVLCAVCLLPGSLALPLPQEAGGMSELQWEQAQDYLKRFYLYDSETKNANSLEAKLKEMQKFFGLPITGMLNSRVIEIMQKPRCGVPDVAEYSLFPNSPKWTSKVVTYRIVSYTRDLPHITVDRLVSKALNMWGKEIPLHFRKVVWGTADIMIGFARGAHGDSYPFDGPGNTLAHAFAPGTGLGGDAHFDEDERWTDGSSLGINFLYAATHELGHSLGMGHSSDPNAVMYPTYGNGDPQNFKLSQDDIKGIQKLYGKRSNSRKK

[36] = molecular target: Stromelysin-1 (Homo sapiens, UniProt P08254); assay: Inhibition of MMP3 (unknown origin) by fluorescence-based FRET assay
Chain of Stromelysin-1 (P08254 whole entry): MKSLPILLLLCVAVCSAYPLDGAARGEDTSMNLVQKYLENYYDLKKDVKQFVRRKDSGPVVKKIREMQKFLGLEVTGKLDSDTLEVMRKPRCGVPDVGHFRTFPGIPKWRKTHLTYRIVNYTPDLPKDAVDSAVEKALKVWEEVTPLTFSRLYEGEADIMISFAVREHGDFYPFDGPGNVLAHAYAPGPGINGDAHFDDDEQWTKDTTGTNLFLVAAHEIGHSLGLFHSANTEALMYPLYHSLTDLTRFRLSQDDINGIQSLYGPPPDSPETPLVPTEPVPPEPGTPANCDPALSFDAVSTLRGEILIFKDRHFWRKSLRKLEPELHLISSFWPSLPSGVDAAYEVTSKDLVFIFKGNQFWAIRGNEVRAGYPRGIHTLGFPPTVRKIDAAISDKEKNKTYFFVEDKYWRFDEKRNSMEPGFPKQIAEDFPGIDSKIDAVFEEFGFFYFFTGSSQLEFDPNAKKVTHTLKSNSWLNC

T1 sequence (P78536 whole entry, the tested form may be a part): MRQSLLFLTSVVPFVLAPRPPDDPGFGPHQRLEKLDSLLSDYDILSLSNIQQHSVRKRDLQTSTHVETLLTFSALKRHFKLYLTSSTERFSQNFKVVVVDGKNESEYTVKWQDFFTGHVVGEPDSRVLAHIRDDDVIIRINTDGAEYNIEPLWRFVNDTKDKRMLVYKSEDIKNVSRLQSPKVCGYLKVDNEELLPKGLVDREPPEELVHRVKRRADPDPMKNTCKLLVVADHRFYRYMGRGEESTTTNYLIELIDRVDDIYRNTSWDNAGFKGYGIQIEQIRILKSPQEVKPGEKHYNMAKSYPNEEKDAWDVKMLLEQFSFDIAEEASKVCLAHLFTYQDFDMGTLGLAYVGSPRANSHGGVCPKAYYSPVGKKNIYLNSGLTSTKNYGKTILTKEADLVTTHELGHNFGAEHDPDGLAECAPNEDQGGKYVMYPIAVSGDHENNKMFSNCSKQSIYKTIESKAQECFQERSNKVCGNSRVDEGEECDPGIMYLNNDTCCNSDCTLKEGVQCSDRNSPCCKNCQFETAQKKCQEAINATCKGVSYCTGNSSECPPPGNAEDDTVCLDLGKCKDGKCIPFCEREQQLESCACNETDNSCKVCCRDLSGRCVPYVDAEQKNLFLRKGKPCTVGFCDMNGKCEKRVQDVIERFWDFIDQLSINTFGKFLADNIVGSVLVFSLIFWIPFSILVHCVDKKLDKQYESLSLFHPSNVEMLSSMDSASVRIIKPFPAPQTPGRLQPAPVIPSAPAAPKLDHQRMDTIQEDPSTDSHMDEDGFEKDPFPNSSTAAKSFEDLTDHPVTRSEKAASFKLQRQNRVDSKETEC
Chain of Matrix metalloproteinase-9 (P14780 whole entry): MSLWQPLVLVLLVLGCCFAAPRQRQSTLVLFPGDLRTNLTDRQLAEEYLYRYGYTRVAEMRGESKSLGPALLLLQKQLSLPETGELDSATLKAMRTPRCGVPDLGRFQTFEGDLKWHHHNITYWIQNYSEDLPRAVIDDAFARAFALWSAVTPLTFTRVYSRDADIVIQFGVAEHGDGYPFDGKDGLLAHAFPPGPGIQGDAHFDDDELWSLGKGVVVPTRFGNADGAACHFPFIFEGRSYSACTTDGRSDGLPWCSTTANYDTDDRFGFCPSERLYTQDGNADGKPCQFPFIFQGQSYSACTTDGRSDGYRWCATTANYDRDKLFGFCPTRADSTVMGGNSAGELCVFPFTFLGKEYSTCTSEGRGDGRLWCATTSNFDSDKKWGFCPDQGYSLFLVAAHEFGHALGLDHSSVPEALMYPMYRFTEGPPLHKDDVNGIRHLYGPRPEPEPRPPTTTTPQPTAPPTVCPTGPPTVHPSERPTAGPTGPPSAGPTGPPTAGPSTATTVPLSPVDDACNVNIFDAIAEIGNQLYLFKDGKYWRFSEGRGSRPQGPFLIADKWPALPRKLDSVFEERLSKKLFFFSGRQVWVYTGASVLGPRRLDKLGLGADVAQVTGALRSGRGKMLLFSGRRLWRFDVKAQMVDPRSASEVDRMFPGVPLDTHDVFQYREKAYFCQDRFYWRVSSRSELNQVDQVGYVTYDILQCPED
Chain of Neutrophil collagenase (P22894 whole entry): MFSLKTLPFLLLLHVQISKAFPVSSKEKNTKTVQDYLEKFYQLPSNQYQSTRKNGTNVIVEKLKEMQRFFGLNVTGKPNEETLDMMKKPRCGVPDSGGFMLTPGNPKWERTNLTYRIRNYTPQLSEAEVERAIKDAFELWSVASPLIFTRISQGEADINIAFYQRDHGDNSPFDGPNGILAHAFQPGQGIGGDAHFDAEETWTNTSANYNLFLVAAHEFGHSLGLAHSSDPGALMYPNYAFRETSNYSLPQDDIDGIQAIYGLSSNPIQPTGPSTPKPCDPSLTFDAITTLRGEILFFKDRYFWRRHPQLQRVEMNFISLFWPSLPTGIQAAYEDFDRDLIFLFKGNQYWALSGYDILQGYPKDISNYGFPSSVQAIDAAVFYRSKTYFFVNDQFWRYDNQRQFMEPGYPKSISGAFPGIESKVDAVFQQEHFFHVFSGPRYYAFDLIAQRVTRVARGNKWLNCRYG
Chain of 72 kDa type IV collagenase (P08253 whole entry): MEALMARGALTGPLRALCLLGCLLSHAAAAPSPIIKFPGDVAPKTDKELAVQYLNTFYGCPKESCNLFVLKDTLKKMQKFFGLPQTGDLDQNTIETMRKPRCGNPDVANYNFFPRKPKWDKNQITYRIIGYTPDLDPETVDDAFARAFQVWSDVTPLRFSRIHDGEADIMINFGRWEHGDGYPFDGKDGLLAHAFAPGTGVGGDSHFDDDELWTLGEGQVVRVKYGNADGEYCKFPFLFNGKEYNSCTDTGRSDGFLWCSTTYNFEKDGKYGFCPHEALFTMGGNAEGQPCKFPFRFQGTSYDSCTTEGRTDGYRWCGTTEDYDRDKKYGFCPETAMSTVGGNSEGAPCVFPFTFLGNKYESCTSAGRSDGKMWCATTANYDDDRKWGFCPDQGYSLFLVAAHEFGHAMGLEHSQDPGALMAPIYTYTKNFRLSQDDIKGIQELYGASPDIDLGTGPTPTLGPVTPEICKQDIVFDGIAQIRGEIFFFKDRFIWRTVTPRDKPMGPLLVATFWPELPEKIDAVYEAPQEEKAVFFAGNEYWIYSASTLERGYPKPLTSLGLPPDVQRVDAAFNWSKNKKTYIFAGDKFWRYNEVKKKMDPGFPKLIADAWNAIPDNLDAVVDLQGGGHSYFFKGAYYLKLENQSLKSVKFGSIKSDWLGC

Work on `CC(C)C[C@H](C(=O)NO)N1CC[C@@](N)(c2ccc(OCc3cc(-c4ccc(OCc5ccccc5)cc4)nc4ccccc34)cc2)C1=O` yielded an IC50 [1] of 4000 nM.

`CC(C)C[C@H](C(=O)NO)N1CC[C@@](N)(c2ccc(OCc3cc(C4CCCCC4)nc4ccccc34)cc2)C1=O` showed an IC50 [1] of 177 nM.

In the case of `Cc1cc(COc2ccc([C@]3(N)CCN([C@H](CC(C)C)C(=O)NO)C3=O)cc2)c2ccccc2n1`, the Tmax [2] is reported as 1.21 h, the IC50 [3] is reported as 12 nM and the Activity [4] is reported as 0.351%. For the same compound, the bioavailability [5] was 18.4%, the IC50 [6] was 429 nM and the AUC [7] was 32400 ng·h/mL. It also gave an IC50 [8] of 389 nM, an Activity [9] of 7.69 ×10⁶ /uL and an Activity [10] of 0.831%. The Activity [11] was 39.22 U/L, the half-life [12] was 8.67 h and the k el [13] was 8.33e-05 s⁻¹. The Activity [14] was 0.79 mg/dL, the Activity [15] was “Non-toxic” and the k el [16] was 2.22e-05 s⁻¹. For the same compound, the Activity [17] was 523.43 U/L, the Activity [18] was “Non-toxic” and the Activity [19] was “Non-toxic”. The ED50 [20] was 6.9 mg/kg, the Ratio IC50 [21] was 40 and the IC50 [22] was 299 nM. The IC50 [23] was 482 nM, the AUC [24] was 5970 ng·h/mL and the Activity [25] was “Non-toxic”. For the same compound, the Activity [26] was 0.714%, the Activity [27] was 4.993% and the Activity [28] was 8.99 ×10³ /uL. For the same compound, the Activity [29] was 457.21 U/L, the half-life [30] was 2.69 h and the IC50 [1] was 60 nM. For the same compound, the IC50 [31] was 480 nM, the Activity [32] was 0.211% and the IC50 [33] was 499 nM. For the same compound, the IC50 [34] was 461 nM, the IC50 [35] was 466 nM and the IC50 [36] was 285 nM.
